From patent publication US6781015B2, “Aminobenzophenones and photopolymerizable compositions including the same” (Albemarle Corporation, priority 1997, dated 2004)
Where “and” joins values, the source holds several entries; their conditions need not be identical. Equal values may be shown once.

Tested on: Salmonella typhimurium tester strain TA98
Assay: Salmonella/Mammalian-Microsome Reverse Mutation Screening Assay (Ames Test)
Format: cell-based
Set-up: key to Background lawn: 1 = normal; 2 = slightly reduced; 3 = moderately reduced; 4 = extremely reduced; 5 = absent; 6 = obscured by precipitate; sp = slight precipitate; mp = moderate precipitate (requires hand count); hp = heavy precipitate (requires hand count)
Details: for Ames Test outcome (mutagenicity): tester strain TA98 in the presence of S9 mix
Protocol: Mutagenicity can be measured by a variety of assays. The most commonly used method is the Salmonella/Mammalian-Microsome Reverse Mutation Screening Assay (Ames Test), which commonly uses four or five strains of Salmonella bacteria to detect different types of mutations.
TMMK, TEMK and MEAB were evaluated for the ability to induce reverse mutations at the histidine locus in the genome of a specific Salmonella typhimurium tester strain in the presence of an exogenous metabolic activation system of mammalian microsomal enzymes derived from Aroclor™-induced rat liver (S9). The tester strain used in the mutagenicity assay was Salmonella typhimurium tester strain TA98 with added activation. The assay was conducted using eight doses of the test article, along with the appropriate vehicle and positive controls in the presence of S9 mix (S9 homogenate was purchased from Molecular Toxicology, Inc., Annapolis, Md. 21401, Batch 0646, 43.4 mg of protein per ml). Positive controls were also plated in the absence of S9 mix. All doses of test article, vehicle, and positive controls were plated in triplicate.
The test article TMMK was stored at room temperature. Acetone (CAS# 67-64-1, Fisher Scientific Co., Lot 961140) was used as the vehicle. At 20 mg per ml, which was the most concentrated stock solution which could be prepared, the test article formed a clear, light yellow solution. The test article remained a solution in all succeeding dilutions prepared for the mutagenicity assay. The maximum aliquot of acetone which can be used in the test system is 200 μl. Thus, the maximum concentration which could be tested was 4,000 μg per plate. The test article and vehicle controls were plated using a 200 μl plating aliquot. Positive control articles were plated using 50 μl plating aliquot.
(§1) The test article TEMK was stored at room temperature. Acetone (CAS# 67-64-1, Fisher Scientific Co., Lot 961140) was used as the vehicle. At 100 mg per ml, which was the most concentrated stock solution prepared, the test article formed a clear, yellow solution. The test article remained a solution in all succeeding dilutions prepared for the mutagenicity assay. The test article, vehicle controls and positive control articles were plated using a 50 μl plating aliquot.
as §1, with “MEAB” for “TEMK”, “(CAS#67-64-1,” for “(CAS# 67-64-1,”, “25” for “100”, “clear, light” for “clear,”, “article and” for “article,”, “were plated using a 200 μl plating aliquot. Positive” for “and positive”
The data are presented as individual plate counts along with a mean and standard deviation.

[1] = TA98, rat liver S9, 3.33 μg/plate
[2] = TA98, rat liver S9, 3.33 μg/plate, plates 1-3
[3] = TA98, rat liver S9, 10.0 μg/plate
[4] = TA98, rat liver S9, 10.0 μg/plate, plates 1-3
[5] = TA98, rat liver S9, 33.3 μg/plate
[6] = TA98, rat liver S9, 33.3 μg/plate, plates 1-3
[7] = TA98, rat liver S9, 100 μg/plate
[8] = TA98, rat liver S9, 100 μg/plate, plates 1-3
[9] = TA98, rat liver S9, 333 μg/plate
[10] = TA98, rat liver S9, 333 μg/plate, plates 1-3
[11] = TA98, rat liver S9, 1000 μg/plate
[12] = TA98, rat liver S9, 1000 μg/plate, plates 1-3
[13] = TA98, rat liver S9, 3330 μg/plate
[14] = TA98, rat liver S9, 3330 μg/plate, plates 1-3
[15] = TA98, rat liver S9, 5000 μg/plate
[16] = TA98, rat liver S9, 5000 μg/plate, plates 1-3
[17] = Table 1, TA98, rat liver S9, 3.33 μg/plate
[18] = Table 1, TA98, rat liver S9, 10.0 μg/plate
[19] = Table 1, TA98, rat liver S9, 33.3 μg/plate
[20] = Table 1, TA98, rat liver S9, 100 μg/plate
[21] = Table 1, TA98, rat liver S9, 333 μg/plate
[22] = Table 1, TA98, rat liver S9, 1000 μg/plate
[23] = Table 1, TA98, rat liver S9, 3330 μg/plate
[24] = Table 1, TA98, rat liver S9, 5000 μg/plate
[25] = Table 2 summary, TA98, rat liver S9, 3.33 μg/plate
[26] = Table 2 summary, TA98, rat liver S9, 10.0 μg/plate
[27] = Table 2 summary, TA98, rat liver S9, 33.3 μg/plate
[28] = Table 2 summary, TA98, rat liver S9, 100 μg/plate
[29] = Table 2 summary, TA98, rat liver S9, 333 μg/plate
[30] = Table 2 summary, TA98, rat liver S9, 1000 μg/plate
[31] = Table 2 summary, TA98, rat liver S9, 3330 μg/plate
[32] = Table 2 summary, TA98, rat liver S9, 5000 μg/plate

## CCN(CC)c1ccc(C(=O)c2ccc(N(CC)CC)cc2)cc1 [TEMK, 4,4′-bis(diethylamino)benzophenone]
[1]
  Mean revertants per plate: 25 revertants per plate
[2]
  Individual plate counts, revertants per plate: 22 revertants per plate (2×) and 30 revertants per plate
[3]
  Mean revertants per plate: 25 revertants per plate
[4]
  Individual plate counts, revertants per plate: 30 revertants per plate and 24 revertants per plate and 20 revertants per plate
[5]
  Mean revertants per plate: 18 revertants per plate
[6]
  Individual plate counts, revertants per plate: 13 revertants per plate and 23 revertants per plate and 19 revertants per plate
[7]
  Mean revertants per plate: 26 revertants per plate
[8]
  Individual plate counts, revertants per plate: 28 revertants per plate and 26 revertants per plate and 24 revertants per plate
[9]
  Mean revertants per plate: 19 revertants per plate
[10]
  Individual plate counts, revertants per plate: 20 revertants per plate and 17 revertants per plate and 19 revertants per plate
[11]
  Mean revertants per plate: 24 revertants per plate
[12]
  Individual plate counts, revertants per plate: 32 revertants per plate and 23 revertants per plate and 17 revertants per plate
[13]
  Mean revertants per plate: 22 revertants per plate
[14]
  Individual plate counts, revertants per plate: 27 revertants per plate and 15 revertants per plate and 25 revertants per plate
[15]
  Mean revertants per plate: 22 revertants per plate
[16]
  Individual plate counts, revertants per plate: 27 revertants per plate and 19 revertants per plate (2×)
[17]
  Background lawn: 1
[18]
  Background lawn: 1
[19]
  Background lawn: 1
[20]
  Background lawn: 1
[21]
  Background lawn: 1 sp
[22]
  Background lawn: 1 mp
[23]
  Background lawn: 1 mp
[24]
  Background lawn: 1 mp
[25]
  Background lawn: 1
[26]
  Background lawn: 1
[27]
  Background lawn: 1
[28]
  Background lawn: 1
[29]
  Background lawn: 1 sp
[30]
  Background lawn: 1 mp
[31]
  Background lawn: 1 mp
[32]
  Background lawn: 1 mp
  Ames Test outcome (mutagenicity): did not cause a positive increase

## Nc1ccc2cc3ccccc3cc2c1 [2-aminoanthracene]
Table 1, positive control, TA98, rat liver S9, 2.5 μg/plate, in the TMMK, TEMK and MEAB runs
  Background lawn: 1
Table 2 summary, positive control, TA98, rat liver S9, 2 5 μg/plate, in the TMMK, TEMK and MEAB runs
  Background lawn: 1
Positive control, TA98, rat liver S9, 2.5 μg/plate, plates 1-3, in the TMMK, TEMK and MEAB runs
  Individual plate counts, revertants per plate: 1053 revertants per plate and 1225 revertants per plate and 1226 revertants per plate and 920 revertants per plate and 932 revertants per plate and 1264 revertants per plate and 1032 revertants per plate and 1133 revertants per plate and 1196 revertants per plate
Positive control, TA98, rat liver S9, 2 5 μg/plate, in the TMMK, TEMK and MEAB runs
  Mean revertants per plate: 968 revertants per plate and 1143 revertants per plate and 1216 revertants per plate

## CCN(C)c1ccc(C(=O)c2ccc(N(C)CC)cc2)cc1 [MEAB, 4,4′-bis(methylethylamino)benzophenone]
[1]
  Mean revertants per plate: 19 revertants per plate
[2]
  Individual plate counts, revertants per plate: 21 revertants per plate and 22 revertants per plate and 13 revertants per plate
[3]
  Mean revertants per plate: 21 revertants per plate
[4]
  Individual plate counts, revertants per plate: 28 revertants per plate and 11 revertants per plate and 25 revertants per plate
[5]
  Mean revertants per plate: 24 revertants per plate
[6]
  Individual plate counts, revertants per plate: 25 revertants per plate and 24 revertants per plate (2×)
[7]
  Mean revertants per plate: 19 revertants per plate
[8]
  Individual plate counts, revertants per plate: 18 revertants per plate and 20 revertants per plate (2×)
[9]
  Mean revertants per plate: 24 revertants per plate
[10]
  Individual plate counts, revertants per plate: 31 revertants per plate and 19 revertants per plate and 21 revertants per plate
[11]
  Mean revertants per plate: 27 revertants per plate
[12]
  Individual plate counts, revertants per plate: 23 revertants per plate and 21 revertants per plate and 36 revertants per plate
[13]
  Mean revertants per plate: 19 revertants per plate
[14]
  Individual plate counts, revertants per plate: 14 revertants per plate and 17 revertants per plate and 27 revertants per plate
[15]
  Mean revertants per plate: 24 revertants per plate
[16]
  Individual plate counts, revertants per plate: 23 revertants per plate (2×) and 27 revertants per plate
[17]
  Background lawn: 1
[18]
  Background lawn: 1
[19]
  Background lawn: 1
[20]
  Background lawn: 1 sp
[21]
  Background lawn: 1 mp
[22]
  Background lawn: 1 mp
[23]
  Background lawn: 1 hp
[24]
  Background lawn: 1 hp
[25]
  Background lawn: 1
[26]
  Background lawn: 1
[27]
  Background lawn: 1
[28]
  Background lawn: 1 sp
[29]
  Background lawn: 1 mp
[30]
  Background lawn: 1 mp
[31]
  Background lawn: 1 hp
[32]
  Background lawn: 1 hp
  Ames Test outcome (mutagenicity): did not cause a positive increase
